We go through 20 compounds from US11186587B2, “Compound as ACC inhibitor and use thereof” (NANJING SANHOME PHARMACEUTICAL CO., LTD., priority 2017, dated 2021).

Where only a bound is given, the exact number is not on record here.

One experiment addresses ACC1 (Homo sapiens (Human), UniProt Q13085). The experiment is described as follows: ACC1 enzyme activity assay (ADP-Glo). The following applies: ACC1 enzyme 2 nM working solution, room temperature. The experiment is classed as biochemical. As to the method: (§1) Compound preparation: the compounds of the present disclosure prepared in the above examples and the control compound were respectively formulated into 10 mM with DMSO for use.
(§2) Preparation of 1× reaction buffer (pH=7.4): HEPES stock solutions (1 M), MgCl2 (1 M), BRIJ-35 (10%), potassium citrate buffer (1 M), BSA (10 mg/mL) and DTT (500 mM) were formulated to enzyme reaction buffer containing HEPES (50 mM), MgCl2 (2 mM), BRIJ-35 (0.01%), potassium citrate buffer (2 mM), BSA (50 Gg/mL) and DTT (2 mM).
4.5 μL of 2.2×ACC1 enzyme (2 nM) working solution was added to a 384-well plate; and then 0.5 μL of different concentrations of compound were added. The mixture was incubated at room temperature for 15 min.
(§3) Negative control group: menstruum containing 5% DMSO; positive control group: menstruum containing 100 nM ND-630. The average values of each concentration and the positive and negative controls were calculated, and the standard deviation was calculated. […] The inhibition rate data was fitted by nonlinear regression equation to calculate IC50 of each compound. The nonlinear regression equation was Y=lowest value+(highest value−lowest value)/(1+10^((Log IC50−X)×HillSlope)), among which X is logarithm of the compound concentration and Y is inhibition percent (%).

The target in a further experiment is ACC2 (Homo sapiens (Human), UniProt O00763). The experiment is described as follows: ACC2 enzyme activity assay (ADP-Glo). The experiment is classed as biochemical. The following applies: ACC2 enzyme 1.1 nM working solution, room temperature. The method, then:
as §1, §2
The mixture was incubated at room temperature for 15 min.
as §3

Sequence of ACC2 (O00763 whole entry): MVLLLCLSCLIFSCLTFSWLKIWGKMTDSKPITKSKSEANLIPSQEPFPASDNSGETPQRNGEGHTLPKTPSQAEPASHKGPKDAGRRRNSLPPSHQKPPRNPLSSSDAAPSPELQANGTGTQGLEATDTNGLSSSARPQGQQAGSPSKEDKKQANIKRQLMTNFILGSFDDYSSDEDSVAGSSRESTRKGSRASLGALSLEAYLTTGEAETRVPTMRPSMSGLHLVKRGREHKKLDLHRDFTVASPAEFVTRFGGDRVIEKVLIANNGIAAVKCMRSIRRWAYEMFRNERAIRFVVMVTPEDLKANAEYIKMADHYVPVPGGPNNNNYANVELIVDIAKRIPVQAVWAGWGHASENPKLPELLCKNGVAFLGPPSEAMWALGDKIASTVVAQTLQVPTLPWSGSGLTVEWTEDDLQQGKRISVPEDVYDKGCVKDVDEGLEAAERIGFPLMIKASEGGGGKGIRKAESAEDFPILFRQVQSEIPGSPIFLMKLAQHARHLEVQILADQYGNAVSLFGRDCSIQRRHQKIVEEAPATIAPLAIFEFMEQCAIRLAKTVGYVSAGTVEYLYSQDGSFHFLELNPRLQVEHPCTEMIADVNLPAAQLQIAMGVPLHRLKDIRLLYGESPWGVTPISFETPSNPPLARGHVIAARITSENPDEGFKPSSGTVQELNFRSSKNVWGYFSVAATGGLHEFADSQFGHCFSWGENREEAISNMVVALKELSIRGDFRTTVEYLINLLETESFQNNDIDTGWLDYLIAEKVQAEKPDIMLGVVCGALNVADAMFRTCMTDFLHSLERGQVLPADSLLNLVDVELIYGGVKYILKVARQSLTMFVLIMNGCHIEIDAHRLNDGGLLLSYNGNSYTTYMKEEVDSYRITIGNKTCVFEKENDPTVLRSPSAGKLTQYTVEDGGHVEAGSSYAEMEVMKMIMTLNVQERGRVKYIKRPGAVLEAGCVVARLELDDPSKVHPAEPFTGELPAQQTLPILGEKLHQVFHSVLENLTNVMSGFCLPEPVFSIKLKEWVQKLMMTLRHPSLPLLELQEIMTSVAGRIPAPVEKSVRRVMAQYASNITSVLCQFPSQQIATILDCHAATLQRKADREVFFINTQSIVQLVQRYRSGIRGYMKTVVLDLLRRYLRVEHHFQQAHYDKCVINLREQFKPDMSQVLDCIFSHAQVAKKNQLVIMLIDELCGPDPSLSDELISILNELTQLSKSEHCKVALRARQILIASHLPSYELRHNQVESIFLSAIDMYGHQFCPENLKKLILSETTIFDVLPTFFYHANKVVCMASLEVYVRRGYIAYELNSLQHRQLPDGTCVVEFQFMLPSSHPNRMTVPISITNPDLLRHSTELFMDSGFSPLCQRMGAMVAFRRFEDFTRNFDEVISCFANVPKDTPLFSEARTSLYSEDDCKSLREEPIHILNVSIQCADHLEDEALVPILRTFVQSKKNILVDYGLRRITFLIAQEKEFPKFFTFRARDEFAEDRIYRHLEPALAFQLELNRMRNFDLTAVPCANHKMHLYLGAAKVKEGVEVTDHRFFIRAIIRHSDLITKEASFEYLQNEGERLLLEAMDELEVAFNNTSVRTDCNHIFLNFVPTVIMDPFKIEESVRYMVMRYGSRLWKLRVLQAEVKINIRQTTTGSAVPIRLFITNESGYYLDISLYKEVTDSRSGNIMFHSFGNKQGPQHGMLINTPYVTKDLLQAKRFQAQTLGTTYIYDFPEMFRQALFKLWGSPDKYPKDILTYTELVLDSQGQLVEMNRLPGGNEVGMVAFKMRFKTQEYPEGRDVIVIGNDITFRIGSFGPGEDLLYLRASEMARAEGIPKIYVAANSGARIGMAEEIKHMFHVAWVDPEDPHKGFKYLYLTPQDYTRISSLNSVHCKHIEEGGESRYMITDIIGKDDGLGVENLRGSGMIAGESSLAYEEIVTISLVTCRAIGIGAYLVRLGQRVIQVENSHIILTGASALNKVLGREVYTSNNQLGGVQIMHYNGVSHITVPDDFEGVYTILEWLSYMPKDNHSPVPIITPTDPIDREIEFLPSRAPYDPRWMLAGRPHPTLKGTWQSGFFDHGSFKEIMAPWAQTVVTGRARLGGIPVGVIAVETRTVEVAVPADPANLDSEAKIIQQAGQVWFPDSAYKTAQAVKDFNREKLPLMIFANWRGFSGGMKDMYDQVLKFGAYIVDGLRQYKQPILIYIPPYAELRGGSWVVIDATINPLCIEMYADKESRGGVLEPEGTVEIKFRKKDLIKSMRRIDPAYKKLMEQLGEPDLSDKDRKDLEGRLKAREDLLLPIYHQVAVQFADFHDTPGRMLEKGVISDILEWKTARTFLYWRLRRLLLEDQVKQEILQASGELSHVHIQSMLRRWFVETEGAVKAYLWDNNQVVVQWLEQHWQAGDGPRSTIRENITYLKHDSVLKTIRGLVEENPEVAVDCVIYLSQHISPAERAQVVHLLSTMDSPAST

For orientation: IC50 means the point on the concentration scale where inhibition reaches its midpoint. High values mean lower potency, low ones higher potency. Consider `COc1ccccc1[C@H](Cn1c(=O)n([C@H]2C[C@](C)(C(=O)O)C2)c(=O)c2c(C)c(-c3ncco3)sc21)OC1CCOCC1` [Example 3, (1R,3r)-3-(1-((R)-2-(2-methoxyphenyl)-2-((tetrahydro-2H-pyran-4-yl)oxy)ethyl)-5-methyl-6-(oxazol-2-yl)-2,4-dioxo-1,4-dihydrothieno[2,3-d]pyrimidine-3(2H)-yl)-1-methylcyclobutanecarboxylic Acid], for which the IC50 amounted to 1 nM at ACC1 and 11.9 nM on ACC2.

For `COc1ccccc1C(Cn1c(=O)n(-c2ccc(C(=O)O)cc2OC)c(=O)c2c(C)c(-c3ncco3)sc21)OC1CCOCC1` (stereo not drawn) [Example 26, 3-methoxy-4-(1-(2-(2-methoxyphenyl)-2-((tetrahydro-2H-pyran-4-yl)oxy)ethyl)-5-methyl-6-(oxazol-2-yl)-2,4-dioxo-1,4-dihydrothieno[2,3-d]pyrimidin-3(2H)-yl)benzoic Acid], the results for the 50% inhibitory concentration (IC50) on ACC1 and on ACC2 were 0.87 nM and 10.3 nM, respectively. As for `COc1ccccc1C(Cn1c(=O)n(C(C)(C)C(=O)O)c(=O)c2c(C)c(-c3ncco3)sc21)OC1CCNCC1` (stereo not drawn) [Example 17], the IC50 at ACC1 was 7.66 nM.

With `COc1ccccc1C(Cn1c(=O)n(C(C)(C)C(=O)O)c(=O)c2c(C)c(-c3ncco3)sc21)N1CCCCC1` (stereo not drawn) [Example 18, 2-(1-(2-(2-methoxyphenyl)-2-(piperidin-1-yl)ethyl)-5-methyl-6-(oxazol-2-yl)-2,4-dioxo-1,4-dihydrothieno[2,3-d]pyrimidin-3(2H)-yl)-2-methylpropionic Acid], the IC50 on ACC1 is more than 1000 nM. Same read-out and setting: with `COc1ccccc1C(Cn1c(=O)n(C(C)(C)C(=O)O)c(=O)c2c(C)c(-c3ncco3)sc21)OC1CCN(C(=O)C2CC2)CC1` (stereo not drawn) [Example 21] the figure was 0.7 nM; with `COc1ccccc1C(Cn1c(=O)n(C2CN(C(=O)N3CC(C)(O)C3)C2)c(=O)c2c(C)c(-c3ncco3)sc21)OC1CCOCC1` (stereo not drawn) [Example 16, 3-(1-(3-Hydroxy-3-methylazetidin-1-oyl)azetidin-3-yl)-1-(2-(2-methoxyphenyl)-2-((tetrahydro-2H-pyran-4-yl)oxy)ethyl)-5-methyl-6-(oxazol-2-yl)thieno[2,3-d]pyrimidine-2,4(1H,3H)-dione], 6.89 nM.

Consider `COc1ccccc1C(Cn1c(=O)n(C2CN(C(=O)C3CC3)C2)c(=O)c2c(C)c(-c3ncco3)sc21)OC1CCOCC1` (stereo not drawn) [Example 8, 3-(1-(cyclopropanecarbonyl)azetidin-3-yl)-1-(2-(2-methoxyphenyl)-2-((tetrahydro-2H-pyran-4-yl)oxy)ethyl)-5-methyl-6-thieno[2,3-d]pyrimidine-2,4(1H,3H)-dione], for which the figures for the IC50 at ACC1 and against ACC2 were 1.12 nM and 13.1 nM, respectively. In the case of `COc1ccccc1C(Cn1c(=O)n(C2CC(OCCF)C2)c(=O)c2c(C)c(-c3ncco3)sc21)OC1CCOCC1` (stereo not drawn) [Example 31], at ACC1, the IC50 is 136 nM. Still for that read-out and setting: to `COc1ccccc1C(Cn1c(=O)n(C2CN(C(=O)c3ccccc3)C2)c(=O)c2c(C)c(-c3ncco3)sc21)OC1CCOCC1` (stereo not drawn) [Example 11, 3-(1-benzoylazetidin-3-yl)-1-(2-(2-methoxyphenyl)-2-((tetrahydro-2H-pyran-4-yl)oxy)ethyl)-5-methyl-6-(oxazol-2-yl)thieno[2,3-d]pyrimidine-2,4(1H,3H)-dione] belongs 4.5 nM. As to `COc1ccccc1C(Cn1c(=O)n(-c2cccc(C(=O)O)c2OC)c(=O)c2c(C)c(-c3ncco3)sc21)OC1CCOCC1` (stereo not drawn) [Example 29, 2-Methoxy-3-(1-(2-(2-methoxyphenyl)-2-((tetrahydro-2H-pyran-4-yl)oxy)ethyl)-5-methyl-6-(oxazol-2-yl)-2,4-dioxo-1,4-dihydrothieno[2,3-d]pyrimidin-3(2H)-yl)benzoic Acid], the IC50 at ACC1 was found to be 2.13 nM; against ACC2 it was 14.1 nM. Regarding `COc1ccccc1C(Cn1c(=O)n(C(C)(C)C(=O)O)c(=O)c2c(C)c(-c3ncco3)sc21)OC1CN(C(C)=O)C1` (stereo not drawn) [Example 23], the IC50 at ACC1 came out at 11.5 nM. Still for that read-out and setting: to `COc1ccccc1C(Cn1c(=O)n(C2CN(C(=O)N3CC(C)(C(=O)O)C3)C2)c(=O)c2c(C)c(-c3ncco3)sc21)OC1CCOCC1` (stereo not drawn) [Example 15, 1-(3-(1-(2-(2-methoxyphenyl)-2-((tetrahydro-2H-pyran-4-yl)oxy)ethyl)-5-methyl-6-(oxazol-2-yl)-2,4-dioxo-1,2-dihydrothieno[2,3-d]pyrimidin-3 (4H)-yl)azetidine-1-carbonyl)-3-methylazetidine-3-carboxylic Acid] belongs 8.79 nM. As to `COc1ccccc1C(Cn1c(=O)n(C2CN(C(=O)c3ccccn3)C2)c(=O)c2c(C)c(-c3ncco3)sc21)OC1CCOCC1` (stereo not drawn) [Example 13, 1-(2-(2-methoxyphenyl)-2-((tetrahydro-2H-pyran-4-yl)oxy)ethyl)-5-methyl-6-(oxazol-2-yl)-3-(1-pyridineformylazetidin-3-yl)thieno[2,3-d]pyrimidine-2,4(1H,3H)-dione], the IC50 came out at 2.33 nM against ACC1 and 11.6 nM against ACC2. Regarding `COc1ccccc1C(Cn1c(=O)n(-c2cc(C(=O)O)ccc2OC)c(=O)c2c(C)c(-c3ncco3)sc21)OC1CCOCC1` (stereo not drawn) [Example 27], half-maximal inhibition on ACC1 (IC50) required 11.8 nM.

As to `COc1ccccc1C(Cn1c(=O)n(-c2cccc(C(=O)O)c2F)c(=O)c2c(C)c(-c3ncco3)sc21)OC1CCOCC1` (stereo not drawn) [Example 28, 2-Fluoro-3-(1-(2-(2-methoxyphenyl)-2-((tetrahydro-2H-pyran-4-yl)oxy)ethyl)-5-methyl-6-(oxazol-2-yl)-2,4-dioxo-1,4-dihydrothieno[2,3-d]pyrimidin-3(2H)-yl)benzoic Acid], the half-inhibitory concentration (IC50) against ACC1 is 1.48 nM; against ACC2, 7.8 nM.

With `COc1ccccc1C(Cn1c(=O)n(C(C)(C)C(=O)O)c(=O)c2c(C)c(-c3ncco3)sc21)OC1CCN(S(C)(=O)=O)CC1` (stereo not drawn) [Example 22], the figures for the IC50 at ACC1 and against ACC2 were 0.63 nM and 5.13 nM, respectively. On ACC1, `COc1ccccc1C(Cn1c(=O)n(-c2c(C)ccn3ccnc23)c(=O)c2c(C)c(-c3ncco3)sc21)OC1CCOCC1` (stereo not drawn) [Example 5, 1-(2-(2-methoxyphenyl)-2-((tetrahydro-2H-pyran-4-yl)oxy)ethyl)-5-methyl-3-(7-methylimidazo[1,2-a]pyridin-8-yl)-6-(oxazol-2-yl)thieno[2,3-d]pyrimidine-2,4(1H, 3H)-diketone] registered an IC50 of 38.5 nM.

In the case of `COc1ccccc1C(Cn1c(=O)n(C(C)(C)C(=O)O)c(=O)c2c(C)c(-c3ncco3)sc21)OC1CCN(C)CC1` (stereo not drawn) [Example 19, 2-(1-(2-(2-methoxyphenyl)-2-((1-methylpiperidin-4-yl)oxy)ethyl)-5-methyl-6-(oxazol-2-yl)-2,4-dioxo-1,4-dihydrothieno[2,3-d]pyrimidin-3(2H)-yl)-2-methylpropionic Acid], the IC50 against ACC1 was 23.3 nM. On the same count and under the same terms, with `COc1ccccc1C(Cn1c(=O)n(-c2cc(C(=O)O)ccc2F)c(=O)c2c(C)c(-c3ncco3)sc21)OC1CCOCC1` (stereo not drawn) [Example 30, 4-Fluoro-3-(1-(2-(2-methoxyphenyl)-2-((tetrahydro-2H-pyran-4-yl)oxy)ethyl)-5-methyl-6-(oxazol-2-yl)-2,4-dioxo-1,4-dihydrothieno[2,3-d]pyrimidin-3(2H)-yl)benzoic Acid] the figure was 7.97 nM; with `COc1ccccc1C(Cn1c(=O)n(C2CC(F)(F)C2)c(=O)c2c(C)c(-c3ncco3)sc21)OC1CCOCC1` (stereo not drawn) [Example 2, 3-(3,3-Difluorocyclobutyl)-1-(2-(2-methoxyphenyl)-2-((tetrahydro-2H-pyran-4-yl)oxy)ethyl)-5-methyl-6-(oxazol-2-yl)thieno[2,3-d]pyrimidine-2,4(1H,3H)-dione], 8.7 nM.
